Data set [1] concerns DENV-2 16681 strain labeled with enhanced green fluorescent protein. Nature of the data set: DENV-2 antiviral assay (eGFP fluorescence read-out in Vero cells). The format is cell-based, Dengue virus. The conditions noted are these: DENV-2 16681 eGFP, MOI 0.5, 3 days. How it is done:
The antiviral activity of all the compounds of the invention was tested against the DENV-2 16681 strain which was labeled with enhanced green fluorescent protein (eGPF). The culture medium consists of minimal essential medium supplemented with 2% of heat-inactivated fetal calf serum, 0.04% gentamycin (50 mg/mL) and 2 mM of L-glutamine. Vero cells, obtained from ECACC, were suspended in culture medium and 25 μL was added to 384-well plates (2500 cells/well), which already contain the antiviral compounds. Typically, these plates contain a 5-fold serial dilution of 9 dilution steps of the test compound at 200 times the final concentration in 100% DMSO (200 nL). […] Finally, each plate contains wells which are assigned as virus controls (containing cells and virus in the absence of compound), cell controls (containing cells in the absence of virus and compound) and medium controls (containing medium in the absence of cells, virus and compounds). To the wells assigned as medium control, 25 μL of culture medium was added instead of Vero cells. Once the cells were added to the plates, the plates were incubated for 30 minutes at room temperature to allow the cells to distribute evenly within the wells. Next, the plates were incubated in a fully humidified incubator (37° C., 5% CO2) until the next day. Then, DENV-2 strain 16681, labeled with eGFP, was added at a multiplicity of infection (MOI) of 0.5. Therefore, 15 μL of virus suspension was added to all the wells containing test compound and to the wells assigned as virus control. In parallel, 15 μL of culture medium was added to the medium and cell controls. Next, the plates were incubated for 3 days in a fully humidified incubator (37° C., 5% CO2). At the day of the read out, the eGFP fluorescence was measured using an automated fluorescence microscope at 488 nm (blue laser). Using an in-house LIMS system, inhibition dose response curves for each compound were calculated and the half maximal effective concentration (EC50) was determined. Therefore, the percent inhibition (I) for every test concentration is calculated using the following formula: I=100*([…])/(SVC−SCC); ST, SCC and SVC are the amount of eGFP signal in the test compound, cell control and virus control wells, respectively. The EC50 represents the concentration of a compound at which the virus replication is inhibited with 50%, as measured by a 50% reduction of the eGFP fluorescent intensity compared to the virus control. The EC50 is calculated using linear interpolation (Table 1).

Data set [2] in a line: in vitro. The format is cell-based. As to conditions: African green monkey, CC50. The method, then:
(§1) In parallel, the toxicity of the compounds was assessed on the same plates. Once the read-out for the eGFP signal was done, 40 μL of ATPlite, a cell viability stain, was added to all wells of the 384-well plates. ATP is present in all metabolically active cells and the concentration declines very rapidly when the cells undergo necrosis or apoptosis. The ATPLite assay system is based on the production of light caused by the reaction of ATP with added luciferase and D-luciferin. The plates were incubated for 10 minutes at room temperature. Next, the plates were measured on a ViewLux. The half maximal cytotoxic concentration (CC50) was also determined, defined as the concentration required to reduce the luminescent signal by 50% compared to that of the cell control wells. Finally, the selectivity index (SI) was determined for the compounds, which was calculated as followed: SI=CC50/EC50.

The next data set deals with DENV-1 strain TC974#666. Nature of the data set: Tetravalent RT-qPCR assay Protocol A, serotype 1. Format: cell-based. As to conditions: Dengue virus, DENV1, 72 h; RT-qPCR serotype 1 TC974#666, Vero cells, day 3. The method, then:
(§2) The antiviral activity of the compounds of the invention was tested against DENV-1 strain TC974#666 (NCPV), DENV-2 strain 16681, DENV-3 strain H87 (NCPV) and DENV-4 strains H241 (NCPV) and EDEN (SG/06K2270DK1/2005; GenBank accession number QG398256) in a RT-qPCR assay. Therefore, Vero cells were infected with either DENV-1, or -2, or -3, or -4 in the presence or absence of test compounds. At day 3 post-infection, the cells were lysed and cell lysates were used to prepare cDNA of both a viral target (the 3′UTR of DENV; Table 2) and a cellular reference gene (β-actin, Table 2). Subsequently, a duplex real time PCR was performed on a Lightcycler480 instrument. The generated Cp value is inversely proportional to the amount of RNA expression of these targets. Inhibition of DENV replication by a test compound results in a shift of Cp's for the 3′UTR gene. On the other hand, if a test compound is toxic to the cells, a similar effect on β-actin expression will be observed. The comparative ΔΔCp method is used to calculate EC50, which is based on the relative gene expression of the target gene (3′UTR) normalized with the cellular housekeeping gene (β-actin). In addition, CC50 values are determined based on the Cp values acquired for the housekeeping gene β-actin.
(§3) The culture medium consisted of minimal essential medium supplemented with 2% of heat-inactivated fetal calf serum, 0.04% gentamycin (50 mg/mL) and 2 mM of L-glutamine. Vero cells, obtained from ECACC, were suspended in culture medium and 75 μL/well was added in 96-well plates (10000 cells/well), which already contain the antiviral compounds. […] In addition, each plate contains wells which are assigned as virus controls (containing cells and virus in the absence of compound) and cell controls (containing cells in the absence of virus and compound). Once the cells were added in the plates, the plates were incubated in a fully humidified incubator (37° C., 5% CO2) until the next day. Dengue viruses serotype-1, 2, 3 and 4 were diluted in order to obtain a Cp of ˜22-24 in the assay. Therefore, 25 μL of virus suspension, was added to all the wells containing test compound and to the wells assigned as virus control. In parallel, 25 μL of culture medium was added to the cell controls. Next, the plates were incubated for 3 days in a fully humidified incubator (37° C., 5% CO2). After 3 days, the supernatant was removed from the wells and the cells were washed twice with ice-cold PBS (˜100 μL). The cell pellets within the 96-well plates were stored at −80° C. for at least 1 day. Next, RNA was extracted using the Cells-to-CT™ lysis kit, according to the manufacturer's guideline (Life Technologies). The cell lysates can be stored at −80° C. or immediately used in the reverse transcription step.
(§4) In preparation of the reverse transcription step, mix A (table 3A) was prepared and 7.57 μL/well was dispensed in a 96-well plate. After addition of 5 μL of the cell lysates, a five minute denaturation step at 75° C. was performed (table 3B). Afterwards, 7.43 μL of mix B was added (table 3C) and the reverse transcription step was initiated (table 3D) to generate cDNA.
(§5) Finally, a RT-qPCR mix was prepared, mix C (table 4A), and 22.02 μL/well was dispensed in 96-well LightCycler qPCR plates to which 3 μL of cDNA was added and the qPCR was performed according to the conditions in table 4B on a LightCycler 480.
(§6) Using the LightCycler software and an in-house LIMS system, dose response curves for each compound were calculated and the half maximal effective concentration (EC50) and the half maximal cytotoxic concentration (CC50) were determined (Tables 5-8).
For orientation: Quantitative PCR measures a nucleic acid by following its amplification.

The next data set concerns DENV-2 strain 16681. Nature of the data set: Tetravalent RT-qPCR assay Protocol A, serotype 2. As to conditions: Dengue virus, DENV2, 72 h; RT-qPCR serotype 2 16681, Vero cells, day 3. Format: cell-based. How it is done:
as §2, §3, §4, §5, §6

The subject of the next data set is DENV-3 strain H87. Nature of the data set: Tetravalent RT-qPCR assay Protocol A, serotype 3. Format: cell-based. The conditions noted are these: Dengue virus, DENV3, 72 h; RT-qPCR serotype 3 H87, Vero cells, day 3. How it is done: as §2, §3, §4, §5, §6
In the next data set the test system is DENV-4 strain H241. Nature of the data set: Tetravalent RT-qPCR assay Protocol A, serotype 4 H241. Format: cell-based. As to conditions: Dengue virus, DENV4, Vero, 72 h. The method, then: as §2, §3, §4, §5, §6
The subject of a further data set is Vero cells. Nature of the data set: in vitro. The format is cell-based. The conditions noted are these: African green monkey. The method, then:
as §1

Data set [3] is described as follows: in vitro. The format is cell-based. The conditions noted are these: African green monkey. The method, then: as §2, §3, §6
Setting [4] is: Dengue virus, DENV2, Vero, 72 h.

Broadly, the EC50 is the midpoint of the concentration-response curve. What is called CC50 is the concentration giving 50% cytotoxicity. On to `COc1cc(NC(C(=O)c2c[nH]c3cc(F)c(C)cc23)c2ccc(Cl)cc2OCCO)cc(S(C)(=O)=O)c1` (single isomer, unassigned) [Compound 8A, 2-(4-chloro-2-(2-hydroxyethoxy)phenyl)-1-(6-fluoro-5-methyl-1H-indol-3-yl)-2-((3-methoxy-5-(methylsulfonyl)phenyl)amino)ethanone], for which the EC50 was 0.11 nM in [1]; 0.39 nM with DENV-1 strain TC974#666; 0.27 nM with DENV-2 strain 16681; 4.2 nM in the data set on DENV-3 strain H87; 36 nM in the data set with DENV-4 strain H241. The same compound gave a cytotoxic concentration (CC50) in the data set “in vitro [2]” of more than 2500 nM.
As to `COc1cc(NC(C(=O)c2c[nH]c3ccc(C(F)(F)F)cc23)c2ccc(Cl)cc2OCCO)cc(S(C)(=O)=O)c1` (single isomer, unassigned) [Compound 9B, 2-(4-chloro-2-(2-hydroxyethoxy)phenyl)-2-((3-methoxy-5-(methylsulfonyl)phenyl)amino)-1-(5-(trifluoromethyl)-1H-indol-3-yl)ethanone], the EC50 turned out to be 0.061 nM in data set [1]; 0.083 nM with DENV-1 strain TC974#666; 0.054 nM in the data set with DENV-2 strain 16681; 1.2 nM in the data set on DENV-3 strain H87; 8.1 nM in the data set with DENV-4 strain H241. In the data set with Vero cells, this compound gave a CC50 of more than 2400 nM. In addition, half-maximal cytotoxicity in the data set “in vitro [3]” (CC50 at 3 days) was put at 2900 nM.
Broadly, the melting point is the temperature of the solid-liquid transition. `COc1cc(NC(C(=O)c2c[nH]c3ccc(C(F)(F)F)cc23)c2ccc(Cl)cc2OCCO)cc(S(C)(=O)=O)c1` (racemic) [Compound 9, 2-(4-chloro-2-(2-hydroxyethoxy)phenyl)-2-((3-methoxy-5-(methylsulfonyl)phenyl)amino)-1-(5-(trifluoromethyl)-1H-indol-3-yl)ethanone] displayed a melting point of 228 °C. In data set [1] (setting [4]), the EC50 came out at 0.1 nM. The CC50 in “in vitro [2]” was more than 2500 nM.
In turn, `COc1cc(NC(C(=O)c2c[nH]c3c(C)c(F)ccc23)c2ccc(Cl)cc2OCCO)cc(S(C)(=O)=O)c1` (racemic) [Compound 4, 2-(4-chloro-2-(2-hydroxyethoxy)phenyl)-1-(6-fluoro-7-methyl-1H-indol-3-yl)-2-((3-methoxy-5-(methylsulfonyl)phenyl)amino)ethanone] returned a melting point of 173 °C. Further, the EC50 in data set [1] (setting [4]) was found to be 0.42 nM. Besides, the midpoint of cytotoxicity in the data set “in vitro [2]”, the CC50, lay at 3700 nM.
With `COc1cc(NC(C(=O)c2c[nH]c3cc(OC)c(OC(F)(F)F)cc23)c2ccc(Cl)cc2OCCO)cc(S(C)(=O)=O)c1` (single isomer, unassigned) [Compound 11B, 2-(4-chloro-2-(2-hydroxyethoxy)phenyl)-2-((3-methoxy-5-(methylsulfonyl)phenyl)amino)-1-(6-methoxy-5-(trifluoromethoxy)-1H-indol-3-yl)ethanone], the EC50 in [1] came out at 0.089 nM; with DENV-1 strain TC974#666, 0.12 nM; with DENV-2 strain 16681, 0.062 nM; with DENV-3 strain H87 it was 1.3 nM; with DENV-4 strain H241, 11 nM. The compound further had a CC50 with Vero cells of more than 2300 nM. For the same compound, in the data set “in vitro [3]”, the CC50 at 3 days was more than 2500 nM.
Take `COc1cc(NC(C(=O)c2c[nH]c3c(C)cc(OC(F)(F)F)cc23)c2ccc(Cl)cc2OCCO)cc(S(C)(=O)=O)c1` (single isomer, unassigned) [Compound 12B, 2-(4-chloro-2-(2-hydroxyethoxy)phenyl)-2-((3-methoxy-5-(methylsulfonyl)phenyl)amino)-1-(7-methyl-5-(trifluoromethoxy)-1H-indol-3-yl)ethanone]: the EC50 is 0.034 nM in [1]; 0.086 nM in the data set with DENV-1 strain TC974#666; 0.053 nM in the data set with DENV-2 strain 16681; 1.1 nM with DENV-3 strain H87; 5.5 nM in the data set with DENV-4 strain H241. In “in vitro [3]”, the CC50 at 3 days was more than 2300 nM.
For the compound `COc1cc(NC(C(=O)c2c[nH]c3cc(F)ccc23)c2ccc(Cl)cc2OCCO)cc(S(C)(=O)=O)c1` (single isomer, unassigned) [Compound 1A, 2-(4-chloro-2-(2-hydroxyethoxy)phenyl)-1-(6-fluoro-1H-indol-3-yl)-2-((3-methoxy-5-(methylsulfonyl)phenyl)amino)ethanone], the EC50 in [1] is 0.24 nM; in the data set on DENV-1 strain TC974#666 it was 1.3 nM; with DENV-2 strain 16681 it was 0.24 nM; in the data set on DENV-3 strain H87 it was 9.6 nM; in the data set on DENV-4 strain H241, 71 nM. This compound also came in with a cytotoxic concentration (CC50) in the data set on Vero cells of 3700 nM. In addition, in the data set “in vitro [3]”, the cytotoxic concentration (CC50) at 3 days is more than 2500 nM.
With `COc1cc(NC(C(=O)c2c[nH]c3ccc(OC(F)(F)F)cc23)c2ccc(Cl)cc2OCCO)cc(S(C)(=O)=O)c1` (single isomer, unassigned) [Compound 10B, 2-(4-chloro-2-(2-hydroxyethoxy)phenyl)-2-((3-methoxy-5-(methylsulfonyl)phenyl)amino)-1-(5-(trifluoromethoxy)-1H-indol-3-yl)ethanone], the EC50 turned out to be 0.067 nM in [1]; 0.071 nM in the data set on DENV-1 strain TC974#666; 0.049 nM with DENV-2 strain 16681; 1.4 nM in the data set on DENV-3 strain H87; 6.9 nM in the data set with DENV-4 strain H241. Moreover, in the data set on Vero cells, the CC50 came out at 2400 nM. The CC50 at 3 days in the data set “in vitro [3]” is more than 2400 nM.
